Laboratory results taken from US20220184020A1, “Polyphenols as Modulators of Platelet Function” (Northeastern University, priority 2019, published 2022).

Experiments:
platelets [1] = assay: Platelet dense granule release (Chrono-Lume); type: cell-based, human; conditions: induced by CRPXL, TRAP-6 and U46619; RA pre-treatment 1 hour
Experimental: (§1) To validate the predictive power of the developed framework, direct experimental evidence of the predicted mechanistic role of Rosmarinic acid (RA) in VD was sought. […] Therefore, whether RA influenced platelet activation in vitro was evaluated. As platelets can be stimulated through different activation pathways, RA effects can, in principle, occur in any of them. To test these different possibilities, platelets were pretreated with RA and then activated with: 1) glycoprotein VI by collagen or collagen-related peptide (Collagen/CRPXL); 2) protease-activated receptors-1,4 by thrombin receptor activator peptide-6 (TRAP-6); 3) prostanoid thromboxane receptor by the thromboxane A2 analogue (U46619); and 4) P2Y1/12 receptor stimulation by adenosine diphosphate (ADP). […] Platelet aggregation was measured by turbidimetric aggregometry. […] Platelet aggregation was monitored for 6 minutes at 37° C. with a stir speed of 1000 rpm and the maximum extend of aggregation recorded using AGGRO/LINK®8 software. In some cases, dense granule release was simultaneously recorded by supplementing samples with Chrono-Lume® (Chrono-Log®, 395) according to the manufacturer's instructions.

platelets [2] = assay: Platelet functions after ADP stimulation (control, distant receptor); type: cell-based, human; conditions: stimulant whose receptor is distant from the RA-VD-module (ADP)
Experimental: as §1, with “instructions. […] Percent-positive cells were determined by gating on fluorescence intensity compared to unstimulated samples.” for “instructions.”

O=C(/C=C/c1ccc(O)c(O)c1)O[C@H](Cc1ccc(O)c(O)c1)C(=O)O [rosmarinic acid]
dense granule secretion (platelets [1]): impairs | platelet functions (platelets [2]): did not affect
